Measured values from PubChem BioAssay (NCI).
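Cultured in 96-well plates, cells were exposed to test compound for 48 hours across five concentrations. GI50: concentration for 50% inhibition of growth. Definition used: TGI = concentration required for complete inhibition of growth.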

How the values were obtained:
Assay in all cases: NCI-60 cell line screen, 48 h
[1] = test system: HCT-15 colon
[2] = test system: SK-MEL-2 melanoma
[3] = test system: SNB-75 CNS
[4] = test system: HCC-2998 colon
[5] = test system: CAKI-1 renal
[6] = test system: OVCAR-5 ovarian
[7] = test system: SNB-19 CNS
[8] = test system: ACHN renal
[9] = test system: HCT-116 colon
[10] = test system: MOLT-4 leukemia

SMILES	TGI [1] [µM]	TGI [2] [µM]	TGI [3] [µM]	TGI [4] [µM]	TGI [5] [µM]	TGI [6] [µM]	TGI [7] [µM]	TGI [8] [µM]	TGI [9] [µM]	TGI [10] [µM]	GI50 [1] [µM]	GI50 [2] [µM]	GI50 [3] [µM]	GI50 [4] [µM]	GI50 [5] [µM]	GI50 [6] [µM]	GI50 [8] [µM]	GI50 [9] [µM]	GI50 [10] [µM]
CCOC(=O)c1c(SCc2cc(=O)[nH]c(=O)[nH]2)n(-c2ccccc2)c(=S)n(-c2ccccc2)c1=O	> 100	> 100	> 100	> 100	> 100	> 100	> 100	> 100	> 100	> 100									
CCCCNC(=O)Cn1c2ccc(Br)cc2c2nc3ccccc3nc21		> 100	> 100		> 100	> 100	> 100	> 100	> 100	> 100									
N#Cc1c(-c2ccc([N+](=O)[O-])cc2)c(C#N)c(=O)n(NS(=O)(=O)c2ccccc2)c1O	> 100	> 100		> 100	> 100	> 100	35.5	> 100	> 100	> 100									
CC1(C)N=C(N)N=C(N)N1c1cccc(Cl)c1	> 100	> 100	> 100	> 100	> 100	> 100	> 100	> 100	> 100										
CC(C)(C)N=NC(C)(C)N=C=O	> 100	> 100	> 100		> 100	> 100	> 100	> 100	> 100	> 100									
CO[P@@]1(=O)O[C@@H](c2ccccc2)[C@H](O)[C@]1(O)c1ccccc1	> 100	> 100	> 100		> 100		> 100	> 100	> 100	> 100									
CC(C)(C)/C(O)=C\c1nc2cc(F)c(F)cc2[nH]c1=O	> 100	> 100	> 100	> 100	> 100		> 100	> 100	> 100	> 100									
CC[C@]12C=CCN3CCC4(c5cc([C@@]6(C(=O)OC)CC7CN(CCc8c6[nH]c6ccccc86)CC6CCCCC67)c(OC)cc5N(C)C4[C@](O)(C(=O)OC)C1OC(C)=O)[C@@H]32 (some centres undefined)	20.1	0.145		< 0.01	12	0.0926	15.4	11.6	0.0631		0.693								
CC(=O)Oc1ccn2nc(C)c(Br)c2c1	> 100	> 100	97.2	> 100		> 100	> 100	> 100	> 100	> 100									
CCC1([N+](=O)[O-])CN(N=O)C1	> 100	> 100	> 100		> 100	> 100	> 100	> 100	> 100	> 100									
CN1C2=Nc3n(c4ccccc4[n+]3C)CN2c2ccccc21	> 100	41.8			> 100	> 100	> 100	> 100	> 100	> 100									
CSc1nc(Cl)c2c(n1)Sc1nc3ccccc3n1C2O (centres undefined)	> 40.2	> 47.4	> 82.2	13.6		> 45	97.1	> 100	> 33.1	> 100									
Oc1ccccc1/C=N/N1C(=S)N(C23CC4CC(CC(C4)C2)C3)C(=Nc2ccccc2)C1=Nc1ccccc1	> 100	> 100		> 100	> 100	> 100	> 100	> 100	> 100	> 100									
CSc1ncc2c(n1)-c1ccccc1OC2NC1CC1 (centres undefined)	> 100	> 100	> 100		86.3	> 100	> 100	> 100	> 100	> 100									
COc1ccc(C(=O)/C=C/SC(=NC#N)SC)cc1	28.8	43.8	89.2		54.8	47.1	35.2	46.7	28.1	58									
CCN(CC)CCCCNc1c2ccc(Cl)cc2nc2ccc(OC)cc12	1.62	3.31	2.39	2.32	3.76	3.33		2.27	1.94	2.79	0.289	1.15	1.09	0.78	1.14	0.465	0.371	0.301	0.306
CC(C)=C/C(CC(O)(C(F)(F)F)C(F)(F)F)=N\O	> 100		> 100	> 100		> 100	> 100	> 100	> 100	> 100									
O=c1c2c3c(sc2nc2n1N=C(c1ccc(Br)cc1)CS2)CCCC3	> 100		> 100	> 100	> 100	> 100	> 100	> 100	> 100	> 100									
O=C(NC(C(F)(F)F)(C(F)(F)F)P(=O)(Cc1ccccc1)Cc1ccccc1)C(C(F)(F)F)C(F)(F)F	> 100	59.1		49.8	97.1	41.8	59.4	42.7	33.1	55.1									
CC(C)=CCc1c(O)cc2oc(-c3ccc(O)cc3O)cc(=O)c2c1O	> 63.2	64.7	69.1	35.1	> 81.4	81.3	> 100	77	61.1										
c1cncc(CSc2nc3ccccc3nc2-c2cccs2)c1	> 100	> 100	> 100	> 100		> 100	> 100	> 100	> 100	98.7									
CNC(=S)N1CCN(C(C)=O)C1=S	> 100	5.36	72.9	> 100	> 100	> 100		> 100	> 100	> 100									
